Measured values as given in ChEMBL document CHEMBL1201862, “PubChem BioAssay data set” (2004).
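Test compounds were applied to cells in 96-well plates for 48 hours at 5 doses. GI50 is the concentration that inhibits growth by half.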 The source made the active and inactive calls. No stated cut-off is given here; in the data, active = GI50 up to about 1.1 µM and inactive = higher.

Tests used:
Assay in all cases: DTP human tumour cell line panel, 48 h
[1] = system: 786-0
[2] = system: A498
[3] = system: A549
[4] = system: ACHN
[5] = system: BT-549
[6] = system: CAKI-1
[7] = system: CCRF-CEM
[8] = system: COLO 205
[9] = system: DU-145
[10] = system: EKVX
[11] = system: HCC 2998
[12] = system: HCT-116
[13] = system: HCT-15
[14] = system: HL-60
[15] = system: HOP-62
[16] = system: HOP-92
[17] = system: HT-29
[18] = system: Hs-578T
[19] = system: IGROV-1
[20] = system: K562
[21] = system: KM12
[22] = system: LOX IMVI
[23] = system: M14
[24] = system: MCF7
[25] = system: MDA-MB-231
[26] = system: MDA-MB-435
[27] = system: MDA-N
[28] = system: MOLT-4
[29] = system: NCI-H23
[30] = system: NCI-H460
[31] = system: NCI/ADR-RES
[32] = system: OVCAR-3
[33] = system: OVCAR-4
[34] = system: OVCAR-5
[35] = system: PC-3
[36] = system: RPMI-8226
[37] = system: RXF 393
[38] = system: SF-268
[39] = system: SF-295
[40] = system: SF-539
[41] = system: SK-MEL-28
[42] = system: SK-MEL-2
[43] = system: SK-MEL-5
[44] = system: SK-OV-3
[45] = system: SN12C
[46] = system: SNB-75
[47] = system: SR
[48] = system: SW-620
[49] = system: T47D
[50] = system: TK-10
[51] = system: U-251
[52] = system: UACC-257
[53] = system: UACC-62
[54] = system: UO-31
[55] = system: NCI-H226
[56] = system: NCI-H522
[57] = system: OVCAR-8
[58] = system: SNB-19

`c1cc(-c2cscc2-c2ccsc2)cs1` was tested, and the GI50 [1] was 72.1 µM (inactive), the GI50 [2] was > 100 µM (inactive) and the GI50 [3] was 43.6 µM (inactive). For the same compound, the GI50 [4] was > 100 µM (inactive), the GI50 [5] was 37.8 µM (inactive) and the GI50 [6] was > 100 µM (inactive). For the same compound, the GI50 [7] was 52.6 µM (inactive), the GI50 [8] was > 100 µM (inactive) and the GI50 [9] was > 100 µM (inactive). The GI50 [10] was 41.3 µM (inactive), the GI50 [11] was 27.4 µM (inactive) and the GI50 [12] was 40.5 µM (inactive). The GI50 [13] was 29.4 µM, the GI50 [14] was 30.4 µM (inactive) and the GI50 [15] was 26.5 µM (inactive). For the same compound, the GI50 [16] was > 100 µM (inactive), the GI50 [17] was > 100 µM (inactive) and the GI50 [18] was 17.4 µM (inactive). For the same compound, the GI50 [19] was 34.5 µM (inactive), the GI50 [20] was 71.4 µM (inactive) and the GI50 [21] was 14.8 µM (inactive). The GI50 [22] was 37.6 µM (inactive), the GI50 [23] was 31.3 µM (inactive) and the GI50 [24] was 30.5 µM (inactive). The GI50 [25] was > 100 µM (inactive), the GI50 [26] was 36.4 µM (inactive) and the GI50 [27] was 40.2 µM (inactive). For the same compound, the GI50 [28] was 30.1 µM (inactive), the GI50 [29] was 25.7 µM (inactive) and the GI50 [30] was 43.9 µM (inactive). For the same compound, the GI50 [31] was 37.7 µM (inactive), the GI50 [32] was 14.4 µM (inactive) and the GI50 [33] was 37.8 µM (inactive). The GI50 [34] was 53.2 µM (inactive), the GI50 [35] was 27.5 µM (inactive) and the GI50 [36] was 34.9 µM (inactive). For the same compound, the GI50 [37] was 28.4 µM (inactive), the GI50 [38] was 58.2 µM (inactive) and the GI50 [39] was 83.4 µM (inactive). For the same compound, the GI50 [40] was 17.8 µM (inactive), the GI50 [41] was 98.4 µM (inactive) and the GI50 [42] was 4.65 µM (inactive). For the same compound, the GI50 [43] was 31 µM (inactive), the GI50 [44] was > 100 µM (inactive) and the GI50 [45] was > 100 µM (inactive). For the same compound, the GI50 [46] was 12.3 µM (inactive), the GI50 [47] was 27.5 µM (inactive) and the GI50 [48] was 57.9 µM (inactive). For the same compound, the GI50 [49] was 69.7 µM (inactive), the GI50 [50] was 88.5 µM (inactive) and the GI50 [51] was > 100 µM (inactive). The GI50 [52] was 58.2 µM (inactive), the GI50 [53] was 47.3 µM (inactive) and the GI50 [54] was 72.9 µM (inactive).
`C=C1C(=O)OC2/C=C(/C)C(OC(C)=O)C/C=C(\C)C(OC(=O)C3(C)OC3C)C(O)C12` (configuration not stated) was tested, and the GI50 [1] was 47.4 µM (inactive), the GI50 [2] was > 100 µM (inactive) and the GI50 [3] was > 100 µM (inactive). For the same compound, the GI50 [4] was > 100 µM (inactive), the GI50 [5] was 65.6 µM (inactive) and the GI50 [6] was 65.8 µM (inactive). For the same compound, the GI50 [7] was 34 µM (inactive), the GI50 [8] was 55.7 µM (inactive) and the GI50 [9] was > 100 µM (inactive). The GI50 [10] was > 100 µM (inactive), the GI50 [11] was > 100 µM (inactive) and the GI50 [12] was 39.7 µM (inactive). The GI50 [13] was 53.3 µM, the GI50 [14] was 30.3 µM (inactive) and the GI50 [15] was > 100 µM (inactive). The GI50 [16] was > 100 µM (inactive), the GI50 [17] was > 100 µM (inactive) and the GI50 [18] was > 100 µM (inactive). For the same compound, the GI50 [19] was > 100 µM (inactive), the GI50 [20] was 40.8 µM (inactive) and the GI50 [21] was > 100 µM (inactive). For the same compound, the GI50 [22] was 30.8 µM (inactive), the GI50 [23] was > 100 µM (inactive) and the GI50 [24] was 51.1 µM (inactive). The GI50 [25] was > 100 µM (inactive), the GI50 [26] was > 100 µM (inactive) and the GI50 [27] was > 100 µM (inactive). The GI50 [28] was 36.9 µM (inactive), the GI50 [55] was > 100 µM (inactive) and the GI50 [29] was > 100 µM (inactive). For the same compound, the GI50 [30] was > 100 µM (inactive), the GI50 [56] was 14.9 µM (inactive) and the GI50 [31] was > 100 µM (inactive). The GI50 [32] was > 100 µM (inactive), the GI50 [33] was > 100 µM (inactive) and the GI50 [34] was > 100 µM (inactive). For the same compound, the GI50 [57] was > 100 µM (inactive), the GI50 [35] was > 100 µM (inactive) and the GI50 [36] was 43.9 µM (inactive). The GI50 [37] was > 100 µM (inactive), the GI50 [38] was > 100 µM (inactive) and the GI50 [39] was > 100 µM (inactive). For the same compound, the GI50 [40] was > 100 µM (inactive), the GI50 [41] was 71 µM (inactive) and the GI50 [42] was > 100 µM (inactive). The GI50 [43] was > 100 µM (inactive), the GI50 [44] was > 100 µM (inactive) and the GI50 [45] was > 100 µM (inactive). For the same compound, the GI50 [58] was > 100 µM (inactive), the GI50 [46] was 97.7 µM (inactive) and the GI50 [47] was 39.4 µM (inactive). For the same compound, the GI50 [48] was 42.4 µM (inactive), the GI50 [49] was > 100 µM (inactive) and the GI50 [50] was > 100 µM (inactive). For the same compound, the GI50 [51] was > 100 µM (inactive), the GI50 [52] was > 100 µM (inactive) and the GI50 [53] was > 100 µM (inactive).
With `CCN(CC)C(=S)Oc1cc2oc(=O)cc(C)c2cc1Cl` the GI50 [1] was > 100 µM (inactive), the GI50 [2] was > 100 µM (inactive) and the GI50 [3] was > 100 µM (inactive). For the same compound, the GI50 [4] was > 100 µM (inactive), the GI50 [5] was > 100 µM (inactive) and the GI50 [6] was > 100 µM (inactive). The GI50 [7] was > 100 µM (inactive), the GI50 [8] was > 100 µM (inactive) and the GI50 [9] was > 100 µM (inactive). The GI50 [10] was > 100 µM (inactive), the GI50 [11] was 52.7 µM (inactive) and the GI50 [12] was > 100 µM (inactive). For the same compound, the GI50 [13] was over 100 µM, the GI50 [14] was > 100 µM (inactive) and the GI50 [15] was 54 µM (inactive). For the same compound, the GI50 [16] was 56 µM (inactive), the GI50 [17] was > 100 µM (inactive) and the GI50 [18] was 57.7 µM (inactive). The GI50 [19] was > 100 µM (inactive), the GI50 [20] was > 100 µM (inactive) and the GI50 [21] was > 100 µM (inactive). For the same compound, the GI50 [22] was 68.7 µM (inactive), the GI50 [23] was > 100 µM (inactive) and the GI50 [24] was 23.9 µM (inactive). For the same compound, the GI50 [25] was > 100 µM (inactive), the GI50 [26] was > 100 µM (inactive) and the GI50 [27] was > 100 µM (inactive). For the same compound, the GI50 [28] was > 100 µM (inactive), the GI50 [55] was > 100 µM (inactive) and the GI50 [29] was > 100 µM (inactive). The GI50 [30] was > 100 µM (inactive), the GI50 [56] was 80.4 µM (inactive) and the GI50 [31] was > 100 µM (inactive). For the same compound, the GI50 [32] was > 100 µM (inactive), the GI50 [33] was > 100 µM (inactive) and the GI50 [34] was > 100 µM (inactive). For the same compound, the GI50 [57] was > 100 µM (inactive), the GI50 [35] was > 100 µM (inactive) and the GI50 [36] was > 100 µM (inactive). The GI50 [37] was 25.5 µM (inactive), the GI50 [38] was 36.1 µM (inactive) and the GI50 [39] was 66.7 µM (inactive). The GI50 [40] was > 100 µM (inactive), the GI50 [41] was > 100 µM (inactive) and the GI50 [42] was 8.51 µM (inactive). The GI50 [43] was > 100 µM (inactive), the GI50 [45] was > 100 µM (inactive) and the GI50 [58] was 66.5 µM (inactive). The GI50 [47] was > 100 µM (inactive), the GI50 [48] was > 100 µM (inactive) and the GI50 [49] was 54 µM (inactive). The GI50 [50] was > 100 µM (inactive), the GI50 [51] was 42.2 µM (inactive) and the GI50 [52] was > 100 µM (inactive). For the same compound, the GI50 [53] was 26.9 µM (inactive) and the GI50 [54] was > 100 µM (inactive).
